Data as given in US7862811B2, “Protease inhibition for prevention or treatment of heart failure” (Regents of the University of Colorado, priority 2004, dated 2011).
Square brackets hold non-standard residues; d marks the D form. Peptide text beside a SMILES is read from it. * marks the point of attachment. Nle = CCCC[C@H](N)C(=O)O; Cbz = O=C(OCc1ccccc1)*

Assays:
[1] = system: MMP; conditions: acute pig model, orally-active; cited from earlier work
[2] = system: RV contractile dysfunction from acute RV pressure overload
Protocol: Pigs were subjected to RV pressure overload by constriction of the main pulmonary artery for 90 min (mean PASP 63 mmHg), followed by 30 min recovery.
Animal care: Domestic farm pigs (25-40 kg) are sedated with IM injection of ketamine HCl, followed by IV administration of fentanyl or propofol and α-chloralose. In most exemplary protocols, experiments are performed under deep general anesthesia using α-chloralose. Following anesthetic induction, pigs are intubated via tracheotomy and ventilated using a pressure-cycled ventilator. Mechanical respiration is adjusted to maintain physiologic values of arterial pH, pO2, and pCO2. All experiments are non-survival: at the conclusion of each experiment, supplemental α-chloralose is given prior to inducing ventricular fibrillation (KCl 10%, 25 cc infused IV).
Instrumentation and Hemodynamic Measurements. The experimental preparation is similar to that previously described (51). After exposure via median sternotomy, the heart is instrumented as illustrated in Appendix A.
For calpain inhibitor experiments, the proximal portion of the right coronary artery is dissected free, fitted with a transit-time ultrasonic flow probe, and cannulated with a 26 g polyethylene catheter as described (52). Digitized hemodynamic data are analyzed as previously described (53) and in Appendix A.
The purpose of this experiment is to determine whether calpain activation is mechanistically related to the development of RV dysfunction from pressure overload. Open-chest pigs will be instrumented as described. A 26 g polyethylene catheter will be inserted into the right coronary artery. […] The infusion will be begun 30 min prior to beginning pulmonary artery constriction and continued throughout the experiment. Biopsies of the RV myocardium will be obtained, followed by baseline hemodynamic measurements. Pigs will then be subjected to RV pressure overload by constriction of the main pulmonary artery for 90 min. Hemodynamic measurements will be repeated 30 min after relief of pressure overload, and a second set of RV biopsies obtained. […]

[3] = system: m-calpain from porcine kidney; conditions: cited from earlier work
[4] = system: Molt-4 cells; conditions: cited from earlier work
[5] = system: cultured rat lenses; conditions: calcium ionophore A23187; cited from earlier work
[6] = system: isolated rat hearts; conditions: global ischemia; cited from earlier work
[7] = system: isolated rat hearts; conditions: elevated LV end-diastolic pressure without ischemia; cited from earlier work

Structure (SMILES): NC(=O)C1=C(O)C[C@@H]2C[C@@H]3Cc4cccc(O)c4C(=O)C3=C(O)[C@]2(O)C1=O [COL-3]
- MMP-mediated lung injury [1]: prevent

Structure (SMILES): CC(C)[C@H](NC(=O)OCc1ccccc1)C(=O)N[C@H](C=O)Cc1ccccc1 [MDL-28170, carbobezoxy-valinyl-phenylalaninal] (Cbz-Val-Phe-aldehyde)
- attenuation of RV dysfunction resulting from acute RV pressure overload (RVPO) ([2]; 90 min RVPO, 30 min recovery, versus vehicle): more than 50%
- independent hemodynamic effects ([2]; pig, in vivo): no independent hemodynamic effects
- preload-adjusted external work of the RV free wall ([2]; thirty min after release of pulmonary artery constriction, n=7, p<0.05 vs vehicle): 69 % of baseline

Structure (SMILES): CC(C)C[C@@H](C=O)NC(=O)[C@@H](NS(=O)(=O)c1ccc(F)cc1)C(C)C [SJA6017, N-(4-fluorophenylsulfonyl)-L-valyl-L-leucinal]
- binding to the active site of m-calpain ([3]; casein zymography): reversibly bound
- inhibition of purified m-calpain ([3]; in vitro): strong inhibition
- cell permeability [4]: cell-permeable
- nuclear opacity and proteolysis of crystallins and alpha-spectrin [5]: reduced

Structure (SMILES): CCCC[C@@H](C=O)NC(=O)[C@H](CC(C)C)NC(=O)[C@H](CC(C)C)NC(C)=O [calpain inhibitor-1] (Ac-Leu-Leu-[Nle]-aldehyde)
- cytoskeletal degradation and myocardial stunning [6]: attenuates

Structure (SMILES): CCCC[C@@H](C=O)NC(=O)[C@H](CC(C)C)NC(=O)OCc1ccccc1 [calpeptin]
- TnI degradation and stunning [7]: prevented
